Structures can show the parent of a compound that is named as a salt. Where two headings read alike, the source gives them in different places. Non-standard residues stand in square brackets, D forms with d. Residues, ends and D or L forms follow the SMILES beside them.
Experiments:
[1] = tested on: vancomycin-resistant Enterococus faecalis (VRE)(ATCC 51575); format: cell-based, Enterococcus faecalis; set-up: key to VRE (in vitro activity): peptide concentration in μg/ml (broth dilution assay); conditions: Table 9
Summary of the method: (§1)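 MICs come from NCCLS-style (M7-A4) dilution testing, mostly microdilution, with an inoculum near 2.5×10^5 cfu/ml from 4000-fold-diluted overnight cultures. Peptide series were 2-fold steps spanning roughly 400–2 μg/ml, prepared in 9% aqueous sucrose with 5% DMSO.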

[2] = tested on: S. aureus (MRSA) ATCC 33591; format: cell-based, Staphylococcus aureus; conditions: Table 9
Summary of the method: as §1

[3] = tested on: murine red blood cells; test: Red blood cell hemolysis; format: cell-based, mouse
Summary of the method: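 Washed murine erythrocytes at 5% in saline with 10% FBS were exposed to serial peptide dilutions for 30 min at 37° C. Supernatant absorbance at 560 nm was read, with saline as 0% and 1% Triton X-100 as 100% hemolysis.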

[4] = media c: Brain Heart Infusion (BHI)
[5] = media b: cation adjusted Meuller Hinton broth (MHBII)
[6] = media a: anti-microbial media-3 (AM-3)

Compound	VRE (in vitro activity) [1, 4]	MRSA (in vitro activity) [2, 5]	RBC Hemolysis (HD50) [3]	VRE (in vitro activity) ([1]; media a: AM-3)	MRSA (in vitro activity) [2, 6]	VRE (in vitro activity) ([1]; media b: MHBII)
CC(C)C[C@H]1NC(=O)[C@H](CCCCN)NC(=O)[C@@H](CC(C)C)NC(=O)[C@H](CCCCN)NC(=O)[C@@H](CC(C)C)NC(=O)[C@H](CCCCN)NC(=O)[C@@H](CC(C)C)NC(=O)[C@H](CCCCN)NC1=O [SEQ ID NO:4, KLKLKLKL] (cyclo(K[dL]K[dL]K[dL]K[dL]))	>200	>200	>200	–	–	–
CC(C)C[C@H]1NC(=O)[C@H](CCCCN)NC(=O)[C@@H](CO)NC(=O)[C@H](CCCCN)NC(=O)[C@@H](CC(C)C)NC(=O)[C@H](CCC(N)=O)NC(=O)[C@@H](CC(C)C)NC(=O)[C@H](CCC(N)=O)NC1=O [SEQ ID NO:104, [KSKLQLQL]] (cyclo(K[dS]K[dL]Q[dL]Q[dL]))	>200	>200	>200	–	–	–
NCCCC[C@@H]1NC(=O)[C@@H](Cc2ccccc2)NC(=O)[C@H](Cc2c[nH]c3ccccc23)NC(=O)[C@@H](Cc2ccccc2)NC(=O)[C@H](CCCCN)NC(=O)[C@@H](CC(N)=O)NC(=O)[C@H](CCC(N)=O)NC(=O)[C@@H](CC(N)=O)NC1=O [SEQ ID NO:89, [KNQNKFWF]] (cyclo(K[dN]Q[dN]K[dF]W[dF]))	70	17	280	–	–	–
CC(C)C[C@H]1NC(=O)[C@H](Cc2c[nH]c3ccccc23)NC(=O)[C@@H](Cc2c[nH]cn2)NC(=O)[C@H](Cc2c[nH]cn2)NC(=O)[C@@H](CO)NC(=O)[C@H](Cc2c[nH]c3ccccc23)NC(=O)[C@@H](CC(C)C)NC(=O)[C@H](Cc2c[nH]c3ccccc23)NC1=O [[SHHWLWLW-HCl] (15), SHHWLWLW] (cyclo([dS]H[dH]W[dL]W[dL]W))	6	6	40	–	–	–
CC(C)C[C@H]1NC(=O)[C@H](CCCCN)NC(=O)[C@@H](Cc2c[nH]cn2)NC(=O)[C@H](CCCCN)NC(=O)[C@@H](CC(C)C)NC(=O)[C@H](Cc2ccccc2)NC(=O)[C@@H](CC(C)C)NC(=O)[C@H](Cc2ccccc2)NC1=O [SEQ ID NO:48, [KHKLFLFL]] (cyclo(K[dH]K[dL]F[dL]F[dL]))	13	7	>220	–	–	–
CC(C)C[C@H]1NC(=O)[C@H](CCCCN)NC(=O)[C@@H](CO)NC(=O)[C@H](CCCCN)NC(=O)[C@@H](CC(C)C)NC(=O)[C@H](Cc2ccc(O)cc2)NC(=O)[C@@H](CC(C)C)NC(=O)[C@H](Cc2ccc(O)cc2)NC1=O [SEQ ID NO:62, [KSKLYLYL]] (cyclo(K[dS]K[dL]Y[dL]Y[dL]))	200	100	>200	–	–	–
CC(C)C[C@H]1NC(=O)[C@H](CCCCN)NC(=O)[C@@H](CC(N)=O)NC(=O)[C@H](CCC(N)=O)NC(=O)[C@@H](CC(N)=O)NC(=O)[C@H](CCCCN)NC(=O)[C@@H](CC(C)C)NC(=O)[C@H](Cc2c[nH]c3ccccc23)NC1=O [SEQ ID NO:90, [KNQNKLWL]] (cyclo(K[dN]Q[dN]K[dL]W[dL]))	>200	>200	>200	–	–	–
CC(C)C[C@H]1NC(=O)[C@H](CCCCN)NC(=O)[C@@H](CO)NC(=O)[C@H](CCCCN)NC(=O)[C@@H](CC(C)C)NC(=O)[C@H](C(C)C)NC(=O)[C@@H](CC(C)C)NC(=O)[C@H](C(C)C)NC1=O [SEQ ID NO:60, [KSKLVLVL]] (cyclo(K[dS]K[dL]V[dL]V[dL]))	>220	>220	>220	–	–	–
CC(C)C[C@H]1NC(=O)[C@H](Cc2c[nH]c3ccccc23)NC(=O)[C@@H](CCCNC(=N)N)NC(=O)[C@H](CCCCN)NC(=O)[C@@H](Cc2c[nH]cn2)NC(=O)[C@H](CCCCN)NC(=O)[C@@H](CC(C)C)NC(=O)[C@H](Cc2c[nH]c3ccccc23)NC1=O [SEQ ID NO:74, [KRWLWLKH]] (cyclo(K[dR]W[dL]W[dL]K[dH]))	–	–	>130	7	5	–
CC(C)C[C@H]1NC(=O)[C@H](Cc2c[nH]c3ccccc23)NC(=O)[C@@H](CO)NC(=O)[C@H](CCCCN)NC(=O)[C@@H](Cc2ccccc2)NC(=O)[C@H](Cc2c[nH]c3ccccc23)NC(=O)[C@@H](CC(C)C)NC(=O)[C@H](Cc2c[nH]c3ccccc23)NC1=O [SEQ ID NO:42, [KSWLWLWF]] (cyclo(K[dS]W[dL]W[dL]W[dF]))	–	–	>26	>26	>26	–
CC(C)C[C@@H]1NC(=O)[C@@H](Cc2c[nH]c3ccccc23)NC(=O)[C@H](CCCCN)NC(=O)[C@@H](CO)NC(=O)[C@H](CCCCN)NC(=O)[C@@H](CO)NC(=O)[C@H](CCCCN)NC(=O)[C@@H](Cc2c[nH]c3ccccc23)NC1=O [SEQ ID NO:91, [KSKSKWLW]] (cyclo(K[dS]K[dS]K[dW]L[dW]))	12	6	200	–	–	–
CC(C)C[C@@H]1NC(=O)[C@@H](Cc2c[nH]c3ccccc23)NC(=O)[C@H](CCC(N)=O)NC(=O)[C@@H](Cc2ccccc2)NC(=O)[C@H](CCCCN)NC(=O)[C@@H](Cc2c[nH]c3ccccc23)NC1=O [SEQ ID NO:129, [KFQWLW]] (cyclo(K[dF]Q[dW]L[dW]))	–	–	>81	10	25	–
CC(C)C[C@@H]1NC(=O)[C@@H](CCCNC(=N)N)NC(=O)[C@H](CCC(N)=O)NC(=O)[C@@H](CCCNC(=N)N)NC(=O)[C@H](Cc2c[nH]c3ccccc23)NC(=O)[C@@H](Cc2c[nH]c3ccccc23)NC(=O)[C@H](CC(C)C)NC(=O)[C@@H](Cc2c[nH]c3ccccc23)NC1=O [SEQ ID NO:69, [QRLWLWWR]] (cyclo(Q[dR]L[dW]L[dW]W[dR]))	–	6.3	35	–	–	6.3
NCCCC[C@@H]1NC(=O)[C@@H](Cc2ccccc2)NC(=O)[C@H](CCC(N)=O)NC(=O)[C@@H](Cc2ccccc2)NC(=O)[C@H](CCCCN)NC(=O)[C@@H](CC(N)=O)NC(=O)[C@H](Cc2c[nH]c3ccccc23)NC(=O)[C@@H](CC(N)=O)NC1=O [SEQ ID NO:98, [KFQFKNWN]] (cyclo(K[dF]Q[dF]K[dN]W[dN]))	>200	>200	>280	–	–	–
CC(C)C[C@@H]1NC(=O)[C@@H](Cc2c[nH]c3ccccc23)NC(=O)[C@H](CCCCN)NC(=O)[C@@H](CCCCN)NC(=O)[C@H](CCCCN)NC(=O)[C@@H](Cc2c[nH]c3ccccc23)NC1=O [SEQ ID NO:121, [KKKWLW]] (cyclo(K[dK]K[dW]L[dW]))	–	–	>111	51	23	–
CC(C)C[C@H]1NC(=O)[C@H](Cc2ccccc2)NC(=O)[C@@H](CCCCN)NC(=O)[C@H](CO)NC(=O)[C@@H](CO)NC(=O)[C@H](CCCCN)NC(=O)[C@@H](CC(C)C)NC(=O)[C@H](Cc2ccccc2)NC1=O [SEQ ID NO:79, [KSSKFLFL]] (cyclo(K[dS]S[dK]F[dL]F[dL]))	43	43	>200	–	–	–
CC(C)C[C@@H]1NC(=O)[C@@H](Cc2c[nH]c3ccccc23)NC(=O)[C@H](CCC(N)=O)NC(=O)[C@@H](CCC(N)=O)NC(=O)[C@H](CCCCN)NC(=O)[C@@H](Cc2c[nH]c3ccccc23)NC1=O [SEQ ID NO:124, [KQQWLW]] (cyclo(K[dQ]Q[dW]L[dW]))	–	–	>35	>35	>35	–
CC(C)C[C@H]1NC(=O)[C@H](C)NC(=O)[C@@H](CC(C)C)NC(=O)[C@H](CCCCN)NC(=O)[C@@H](Cc2c[nH]cn2)NC(=O)[C@H](CCCCN)NC(=O)[C@@H](CC(C)C)NC(=O)[C@H](C)NC1=O [SEQ ID NO:45, [KHKLALAL]] (cyclo(K[dH]K[dL]A[dL]A[dL]))	200	50	>200	–	–	–
CC(C)C[C@@H]1NC(=O)[C@@H](Cc2c[nH]c3ccccc23)NC(=O)[C@H](CCCCN)NC(=O)[C@@H](CCC(=O)O)NC(=O)[C@H](CCCCN)NC(=O)[C@@H](Cc2c[nH]c3ccccc23)NC1=O [SEQ ID NO:117, [KEKWLW]] (cyclo(K[dE]K[dW]L[dW]))	–	–	>121	91	101	–
CC(C)C[C@H]1NC(=O)[C@H](Cc2c[nH]c3ccccc23)NC(=O)[C@@H](Cc2c[nH]cn2)NC(=O)[C@H](CCCCN)NC(=O)[C@@H](Cc2c[nH]cn2)NC(=O)[C@H](CCCCN)NC(=O)[C@@H](CC(C)C)NC(=O)[C@H](Cc2c[nH]c3ccccc23)NC1=O [SEQ ID NO:73, [KHKHWLWL]] (cyclo(K[dH]K[dH]W[dL]W[dL]))	18	18	150	–	–	–
